PMC7756784 (Chemistry (Weinheim an Der Bergstrasse, Germany), 2020)

Molecular target: human galectin-1 (Gal-1) (Homo sapiens, UniProt P09382)
Assay: ITC, single-site model
Assay type: binding
Settings: 50 mM sodium phosphate, 150 mM NaCl, pH 7.4, 1 mM TCEP

human galectin-1 (Gal-1), sequence (P09382 2-135): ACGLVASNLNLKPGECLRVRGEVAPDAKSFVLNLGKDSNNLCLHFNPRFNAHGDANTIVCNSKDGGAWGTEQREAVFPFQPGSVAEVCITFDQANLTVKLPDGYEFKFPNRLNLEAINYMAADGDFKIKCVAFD

| SMILES | Kd |
| --- | --- |
| CC(=O)N[C@H]1C(O)O[C@H](CO)[C@@H](O[C@@H]2O[C@H](CO)[C@H](O)[C@H](O)[C@H]2O[C@@H]2O[C@@H](C)[C@@H](O)[C@@H](O)[C@@H]2O)[C@@H]1O (some centres unmarked) [compound 3, H type‐II] | 319 µM |
| CC(=O)N[C@H]1C(O)O[C@H](CO)[C@@H](O[C@@H]2O[C@H](CO)[C@H](O)[C@H](O[C@H]3O[C@H](CO)[C@H](O)[C@H](O)[C@H]3O)[C@H]2O[C@@H]2O[C@@H](C)[C@@H](O)[C@@H](O)[C@@H]2O)[C@@H]1O (some centres unmarked) [compound 4, B type‐II] | 379 µM |
